Measurements reported in US20200087248A1, “Fluoroallylamine Derivative And Use Thereof” (SICHUAN KELUN-BIOTECH BIOPHARMACEUTICAL CO., LTD., priority 2017, published 2020).
Counter-ions that a name gives are not always drawn. Like-named read-outs stand apart in the source and are kept apart here.

Key:
[1] = Stability in liver microsomes, dog; format: in vitro ADME
Experimental: (§1) Stability of Liver Microsomes
(§2) Formulation of a compound reservation solution: the test compound, diclofenac acid, testosterone and propafenone were weighted in appropriate amounts, and calibrated by adding about 1 mL of DMSO to provide a 10 mM reservation solution, then stored in a 4° C. refrigerator;
(§3) Formulation of a compound working solution: 10 μL of the reservation solution were added to 990 μL acetonitrile-water (1:1) to provide a middle solution having a concentration of 100 μM, and 120 μL of the middle solution is further diluted with 2880 μL PBS to provide a 4 μM working solution; […]
(§4) After being incubated for a certain period of time, an equivalent volume of cooled acetonitrile (4° C.) was added to terminate the reaction, and LC-MS/MS was used to determine the concentrations of the compound after being incubated in various liver microsomes for different time periods. With the incubation time as the horizontal ordinate and the natural logarithm of the percentages of the remained compound at each time point as the longitudinal coordinate, a diagram was plotted, wherein the slope was the velocity constant (Ke), and the half-life (T1/2) and clearance rate (CLliver) of the compound were calculated according to the following equation to evaluate the staiblity of the compound in the liver microsomes. […]

[2] = target: T1, VAP-1 in abdominal fat of mice (Mus musculus, UniProt O70423); assay: Inhibition of VAP-1 enzymatic activity at different dose and time conditions (ex-vivo); format: in vivo, BALBc mice; settings: for Inhibition rate against the enzymatic activity of VAP-1 in abdominal fat of mice: hydrochloride; for inhibition at 0.5 mg/kg / inhibition at 3 mg/kg: mouse, po, read-out: Inhibition rate against the enzymatic activity of VAP-1 in abdominal fat of mice
T1 construct: abdominal fat was collected and homogenized; from tissue; host or cells: abdominal fat of BALBc mice (homogenate supernatant)
T1 sequence (O70423 1-765): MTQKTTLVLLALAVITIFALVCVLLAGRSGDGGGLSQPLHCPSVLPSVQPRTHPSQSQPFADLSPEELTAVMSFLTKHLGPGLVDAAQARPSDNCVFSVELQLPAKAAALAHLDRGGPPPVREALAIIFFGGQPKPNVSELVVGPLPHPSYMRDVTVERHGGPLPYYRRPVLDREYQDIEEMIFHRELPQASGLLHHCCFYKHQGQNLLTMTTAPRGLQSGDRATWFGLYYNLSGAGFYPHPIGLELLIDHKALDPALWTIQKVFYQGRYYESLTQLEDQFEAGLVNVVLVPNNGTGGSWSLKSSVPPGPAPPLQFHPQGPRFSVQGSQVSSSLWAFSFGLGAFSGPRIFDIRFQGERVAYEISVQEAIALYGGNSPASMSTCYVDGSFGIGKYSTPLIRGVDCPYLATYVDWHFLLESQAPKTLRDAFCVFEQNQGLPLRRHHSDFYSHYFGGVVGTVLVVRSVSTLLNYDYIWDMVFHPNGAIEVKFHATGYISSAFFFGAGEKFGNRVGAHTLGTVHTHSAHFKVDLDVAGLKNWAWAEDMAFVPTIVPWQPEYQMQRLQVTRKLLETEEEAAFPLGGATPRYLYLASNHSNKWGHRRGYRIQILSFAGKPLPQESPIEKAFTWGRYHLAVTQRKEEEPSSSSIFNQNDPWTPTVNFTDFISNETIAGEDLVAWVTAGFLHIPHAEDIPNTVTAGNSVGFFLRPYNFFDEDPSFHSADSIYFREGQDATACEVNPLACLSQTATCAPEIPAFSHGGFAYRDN
Experimental: Inhibition Experiment Against the Enzymatic Activity at Different Does and Time Conditions (ex-vivo)
Tissue homogenate buffer solution (20 mM HEPES, pH 7.2, 1 mM EDTA, 250 mM sucrose, PMSF 0.2 mM)
Reaction buffer solution: 50 mM PBS, pH 7.4
Test kit: Amplex® Red Monoamine Oxidase Assay, Manufacturer: ThermoFisher
BALBc mice were orally administrated with different doses (0.5 mg/kg, 3 mg/kg) of the test compound, and the vehicle group was used as the control group. Abdominal fat was collected at 6 hrs, 10 hrs, 24 hrs respectively, and homogenized with a pre-cooled homogenate buffer solution, and thereafter, the supernatant was collected and stored for use.
A test sample was diluted with the reaction buffer solution, and respectively added with the inhibition solution A 1 μM Clorgyline+1 μM pargylin, to inhibit the activities of MAO-A and MAO-B, and the inhibition solution B: 1 μM Clorgyline+1 μM Pargylin+1 μM Mofegiline as the Wank control, and after being incubated at room temperature, 500 μM benzylamine hydrochloride, 1 U/mL HRP and 200 μM Amplex Red reagent were added to start the reaction. By referring to the method in “Experiment of inhibiting the enzymatic activity of VAP-1”, the relative activities of each dose groups were calculated, wherein ratio of the fluorescent signal to reaction time in the linear range is the reaction rate, and the vehicle group is the positive control, thereby to study the inhibition of the compound against the enzymatic activity of VAP-1 in abdominal fat of mice.

Rat PK experiment = format: in vivo, Male rats; settings: male; for AUC(0-inf) / Cmax / half-life: rat blood plasma
Experimental: Male rats were intravenously (iv) and intragastrically (po) administered the test compounds respectively, and LC-MS/MS was used to measure the blood plasma concentration of the compound in the bodies of the rat. The main pharmacokinetic parameters were calculated by utilizing WinNonlin 6.3 software.

[3] = Stability in liver microsomes, monkey; format: in vitro ADME
Experimental: as §1, §2, §3, §4

[4] = Stability in liver microsomes, human; format: in vitro ADME
Experimental: as §1, §2, §3, §4

## CC1(C)Cc2cc(OC/C(=C/F)CN)ccc2C(=O)N1 [HC38-E, (E)-6-((2-(aminomethyl)-3-fluoroallyl)oxy)-3,3-dimethyl-3,4-dihydroisoquinolin-1(2H)-one hydrochloride]
[1]; Dog
  T1/2 in liver microsomes: long half-life
[1]; dog, liver microsomes, read-out: T1/2 in liver microsomes
  half-life: 118 h
[2]; 0.5 mg/kg oral, 6 hours
  Inhibition rate against the enzymatic activity of VAP-1 in abdominal fat of mice: 95.8 ± 3.6%
  inhibition at 0.5 mg/kg: ~95%
[2]; 3.0 mg/kg oral, 10 hours
  Inhibition rate against the enzymatic activity of VAP-1 in abdominal fat of mice: 95.3 ± 1.9%
  inhibition at 3 mg/kg: ~95%
[2]; 0.5 mg/kg oral, 10 hours
  inhibition at 0.5 mg/kg: 90.3 ± 3.2%
[2]; 0.5 mg/kg oral, 24 hours
  inhibition at 0.5 mg/kg: 68.1 ± 7.4%
[2]; 3.0 mg/kg oral, 6 hours
  inhibition at 3 mg/kg: 96.4 ± 5.6%
[2]; 3.0 mg/kg oral, 24 hours
  inhibition at 3 mg/kg: 78 ± 9.3%
Rat PK experiment; plasma, rat, po 3 mg/kg
  bioavailability: 89.9%
Rat PK experiment; iv 3 mg/kg
  AUC(0-inf): 1160 ± 120 ng·h/mL
  Cmax: 1040 ± 181 ng/mL
  half-life: 1.43 ± 0.15 h
Rat PK experiment; po 3 mg/kg
  AUC(0-inf): 1040 ± 129 ng·h/mL
  Cmax: 343 ± 24 ng/mL
  half-life: 1.37 ± 0.01 h
[3]; Monkey
  T1/2 in liver microsomes: long half-life
[3]; monkey, liver microsomes, read-out: T1/2 in liver microsomes
  half-life: 20.8 h
[4]
  T1/2 in liver microsomes: long half-life
[4]; liver microsomes, read-out: T1/2 in liver microsomes
  half-life: 44.6 h
